Where two headings read alike, the source gives them in different places.
Tested on: SNU-C4 HiBiT-PXR KI cells
Test: Cytotoxicity, CellTiter-Glo Luminescent Cell Viability Assay
Format: cell-based
Procedure: An Echo 655T Acoustic Liquid Handler was used to dispense 75 nL/well of DMSO or PROTAC dilution into white tissue culture-treated 384-well plates. For 24 h cytotoxicity, 25 μL assay media containing 1×10^4 cells was added to each well to match the conditions for the degradation assays. For 72 h cytotoxicity, 25 μL RPMI with 10% FBS containing 2.5×10^3 cells was added to each well to match normal growth conditions. […] After 24 h or 72 h, the CellTiter-Glo Luminescent Cell Viability Assay (Promega, cat. #G7572) and an EnVision microplate reader were used to assess cytotoxicity. DMSO wells with cells served as positive controls, and wells without cells served as negative controls. The percent cell viability for each well was calculated using equation 5,

[1] = read-out: 24 h CC50, Table 3, 24 h treatment
[2] = read-out: 72 h CC50, Table 3, 72 h treatment
[3] = read-out: 24 h CC50, Table 4, 24 h treatment
[4] = read-out: 72 h CC50, Table 4, 72 h treatment
[5] = read-out: 24 h CC50, Table 2, 24 h treatment
[6] = read-out: 72 h CC50, Table 2, 72 h treatment

With `COc1cc(OCCOCCOCCOCCOCCOCCC(=O)N[C@H](C(=O)N2C[C@H](O)C[C@H]2C(=O)NCc2ccc(-c3scnc3C)cc2)C(C)(C)C)c(C)cc1-n1nnc(S(=O)(=O)c2ccc(C(C)(C)C)cc2)c1C` [Compound 31, (2S,4R)-1-((S)-20-(TERT-BUTYL)-1-(4-(4-((4-(TERT-BUTYL)PHENYL)SULFONYL)-5-METHYL-1H-1,2,3-TRIAZOL-1-YL)-5-METHOXY-2-METHYLPHENOXY)-18-OXO-3,6,9,12,15-PENTAOXA-19-AZAHENICOSAN-21-OYL)-4-HYDROXY-N-(4-(4-METHYLTHIAZOL-5-YL)BENZYL)PYRROLIDINE-2-CARBOXAMIDE] the CC50 [1] was > 30 µM and the CC50 [2] was > 30 µM.
`COc1cc(OCCCC(=O)N[C@H](C(=O)N2C[C@H](O)C[C@H]2C(=O)NCc2ccc(-c3scnc3C)cc2)C(C)(C)C)c(C)cc1-n1nnc(S(=O)(=O)c2ccc(C(C)(C)C)cc2)c1C` [Compound 23, (2S,4R)-1-((S)-2-(4-(4-(4-((4-(TERT-BUTYL)PHENYL)SULFONYL)-5-METHYL-1H-1,2,3-TRIAZOL-1-YL)-5-METHOXY-2-METHYLPHENOXY)BUTANAMIDO)-3,3-DIMETHYLBUTANOYL)-4-HYDROXY-N-(4-(4-METHYLTHIAZOL-5-YL)BENZYL)PYRROLIDINE-2-CARBOXAMIDE] was tested, and the CC50 [1] was > 30 µM and the CC50 [2] was > 30 µM.
`COc1cc(OCCOCCC(=O)N[C@H](C(=O)N2C[C@H](O)C[C@H]2C(=O)NCc2ccc(-c3scnc3C)cc2)C(C)(C)C)c(C)cc1-n1nnc(S(=O)(=O)c2ccc(C(C)(C)C)cc2)c1C` [Compound 24, (2S,4R)-1-((S)-2-(3-(2-(4-(4-((4-(TERT-BUTYL)PHENYL)SULFONYL)-5-METHYL-1H-1,2,3-TRIAZOL-1-YL)-5-METHOXY-2-METHYLPHENOXY)ETHOXY)PROPANAMIDO)-3,3-DIMETHYLBUTANOYL)-4-HYDROXY-N-(4-(4-METHYLTHIAZOL-5-YL)BENZYL)PYRROLIDINE-2-CARBOXAMIDE] was tested, and the CC50 [1] was > 30 µM and the CC50 [2] was > 30 µM.
`COc1cc(OCC(=O)NCCOCCOCCOCCOCC(=O)N[C@H](C(=O)N2C[C@H](O)C[C@H]2C(=O)NCc2ccc(-c3scnc3C)cc2)C(C)(C)C)c(C)cc1-n1nnc(S(=O)(=O)c2ccc(C(C)(C)C)cc2)c1C` [Compound 30, (2S,4R)-1-((S)-2-(TERT-BUTYL)-20-(4-(4-((4-(TERT-BUTYL)PHENYL)SULFONYL)-5-METHYL-1H-1,2,3-TRIAZOL-1-YL)-5-METHOXY-2-METHYLPHENOXY)-4,19-DIOXO-6,9,12,15-TETRAOXA-3,18-DIAZAICOSANOYL)-4-HYDROXY-N-(4-(4-METHYLTHIAZOL-5-YL)BENZYL)PYRROLIDINE-2-CARBOXAMIDE] was tested, and the CC50 [1] was > 30 µM and the CC50 [2] was > 30 µM.
For `CCC[C@H](CC)Oc1ccc(C(C)(C)C)cc1NC(=O)c1nnn(-c2cc(C)c(OCCCCCCOCCOCC(=O)N[C@H](C(=O)N3C[C@H](O)C[C@H]3C(=O)NCc3ccc(-c4scnc4C)cc3)C(C)(C)C)cc2OC)c1C` [Compound 36], the CC50 [3] was > 30 µM and the CC50 [4] was > 30 µM.
With `CCCCOc1ccc(C(C)(C)C)cc1NC(=O)c1nnn(-c2cc(C)c(OCCCCCCOCCOCC(=O)N[C@H](C(=O)N3C[C@H](O)C[C@H]3C(=O)NCc3ccc(-c4scnc4C)cc3)C(C)(C)C)cc2OC)c1C` [Compound 35, N-(2-Butoxy-5-(tert-butyl)phenyl)-1-(4-((6-(2-(2-(((S)-1-((2S,4R)-4-hydroxy-2-((4-(4-methylthiazol-5-yl)benzyl)carbamoyl)pyrrolidin-1-yl)-3,3-dimethyl-1-oxobutan-2-yl)amino)-2-oxoethoxy)ethoxy)hexyl)oxy)-2-methoxy-5-methylphenyl)-5-methyl-1H-1,2,3-triazole-4-carboxamide] the CC50 [3] was > 30 µM and the CC50 [4] was > 30 µM.
For `COc1cc(OCCOCCOCCC(=O)N[C@H](C(=O)N2C[C@H](O)C[C@H]2C(=O)NCc2ccc(-c3scnc3C)cc2)C(C)(C)C)c(C)cc1-n1nnc(S(=O)(=O)c2ccc(C(C)(C)C)cc2)c1C` [Compound 26, (2S,4R)-1-((S)-2-(3-(2-(2-(4-(4-((4-(TERT-BUTYL)PHENYL)SULFONYL)-5-METHYL-1H-1,2,3-TRIAZOL-1-YL)-5-METHOXY-2-METHYLPHENOXY)ETHOXY)ETHOXY)PROPANAMIDO)-3,3-DIMETHYLBUTANOYL)-4-HYDROXY-N-(4-(4-METHYLTHIAZOL-5-YL)BENZYL)PYRROLIDINE-2-CARBOXAMIDE], the CC50 [1] was > 30 µM and the CC50 [2] was > 30 µM.
With `CCC[C@H](CC)Oc1ccc(C(=O)NCCCCCCCCC(=O)N[C@H](C(=O)N2C[C@H](O)C[C@H]2C(=O)NCc2ccc(-c3scnc3C)cc2)C(C)(C)C)cc1NC(=O)c1nnn(-c2cc(OC)ccc2OC)c1C` [Compound 19] the CC50 [5] was > 30 µM and the CC50 [6] was > 30 µM.
For `COc1cc(OCCCCCCOCCOCCOCCCCCC(=O)N[C@H](C(=O)N2C[C@H](O)C[C@H]2C(=O)NCc2ccc(-c3scnc3C)cc2)C(C)(C)C)c(C)cc1-n1nnc(S(=O)(=O)c2ccc(C(C)(C)C)cc2)c1C` [Compound 33, (2S,4R)-1-((S)-2-(tert-Butyl)-22-(4-(4-((4-(tert-butyl)phenyl)sulfonyl)-5-methyl-1H-1,2,3-triazol-1-yl)-5-methoxy-2-methylphenoxy)-4-oxo-10,13,16-trioxa-3-azadocosanoyl)-4-hydroxy-N-(4-(4-methylthiazol-5-yl)benzyl)pyrrolidine-2-carboxamide], the CC50 [1] was > 30 µM and the CC50 [2] was > 30 µM.
For `COc1ccc(OC)c(-n2nnc(C(=O)Nc3cc(OCCCCCCOCCOCC(=O)N[C@H](C(=O)N4C[C@H](O)C[C@H]4C(=O)NCc4ccc(-c5scnc5C)cc4)C(C)(C)C)cc(C(C)(C)C)c3)c2C)c1` [Compound 15, N-(3-(TERT-BUTYL)-5-((6-(2-(2-(((S)-1-((2S,4R)-4-HYDROXY-2-((4-(4-METHYLTHIAZOL-5 YL)BENZYL)CARBAMOYL)PYRROLIDIN-1-YL)-3,3-DIMETHYL-1-OXOBUTAN-2-YL)AMINO)-2-OXOETHOXY)ETHOXY)HEXYL)OXY)PHENYL)-1-(2,5-DIMETHOXYPHENYL)-5-METHYL-1H-1,2,3-TRIAZOLE-4-CARBOXAMIDE], the CC50 [5] was > 30 µM and the CC50 [6] was > 30 µM.

— patent US12516051B1, “Small molecule degraders and fluorescent probes of PXR” (St. Jude Children's Research Hospital, Inc., priority 2024, dated 2026)
